Literature values, collected in patent US20210319872A1, “DRUG AND DEVICE COMBINATION PRODUCTS WITH IMPROVED SAFETY AND EFFICACY PROFILES” (priority 2016, published 2021).
Like-named read-outs stand apart in the source and are kept apart here.

Experiments:
[1] = patients who had been started on the drug
[2] = older adults
[3] = in vivo
[4] = tested on: subjects; conditions: 16 subjects after 15-mg dose, pilot and main studies, FIG. 31 B

CC[C@H]1OC(=O)[C@H](C)[C@@H](O[C@H]2C[C@@](C)(OC)[C@@H](O)[C@H](C)O2)[C@H](C)[C@@H](O[C@@H]2O[C@H](C)C[C@H](N(C)C)[C@H]2O)[C@](C)(OC)C[C@@H](C)C(=O)[C@H](C)[C@@H](O)[C@]1(C)O [clarithromycin]
Digoxin toxicity, times more likely [1]: 12 times

[Li] [lithium]
clearance rate [2]: reduced

COc1ccc2c3c1O[C@H]1C(=O)CC[C@@]4(O)[C@@H](C2)N(C)CC[C@]314 [oxycodone, reference compound]
Abdominal pain [3]: Gastrointestinal: Abdominal pain (up to 5%), Constipation (Adults, | Chest pain [3]: Cardiovascular: Cardiac arrest, Chest pain (less than 1%), Heart | Fever [3]: Other: Fever (Adults, up to 5%; pediatrics, 11%) | Headache [3]: (Adults, 3% or greater; pediatrics, 14%), Somnolence (controlled- | Heart failure [3]: failure (less than 3%), Hypotension (less than 3%), Shock, ST | Hypersensitivity reaction [3]: Immunologic: Hypersensitivity reaction (less than 3%) | Hypotension [3]: failure (less than 3%), Hypotension (less than 3%), Shock, ST | Opioid withdrawal [3]: Opioid withdrawal (1% to 5%) | ST segment depression [3]: segment depression (less than 1%), Syncope (less than 1%) | Serious side effect, Gastrointestinal [3]: Gastrointestinal: Bowel obstruction, Diverticulitis, Exacerbation | Serious side effect, Other [3]: Other: Drug withdrawal syndrome in neonate of dependent mother, | Serious side effect, Respiratory [3]: Respiratory: Respiratory depression | Somnolence [3]: release, 23%; immediate-release, 3% or greater) | Sweating [3]: (controlled-release, 5%; immediate-release, less than 3%) | Syncope [3]: segment depression (less than 1%), Syncope (less than 1%) | individual time course of pupil diameter [4]: does not move into “pinpoint pupils”, overdose, or mydriasis

CC(=O)O[C@H]1CC[C@@]2(C)C(=CC[C@@H]3[C@@H]2CC[C@]2(C)C(c4cccnc4)=CC[C@@H]32)C1 [Zytiga]
ALT/SGPT level raised [3]: Hepatic: ALT/SGPT level raised (11.1% to 41.9%), AST/SGOT | AST/SGOT level raised [3]: level raised (30.6% to 37.3%), Serum bilirubin raised (6.6%) | Adrenal insufficiency [3]: Endocrine metabolic: Adrenal insufficiency (0.5%), Hypokalemia | Alkaline phosphatase raised [3]: Hepatic: Alkaline phosphatase raised (Greater than 20%) | Anemia [3]: Hematologic: Anemia (Greater than 20%), Lymphocytopenia, All | Cardiac dysrhythmia [3]: Cardiovascular: Cardiac dysrhythmia (7.2%), Cardiorespiratory | Contusion [3]: Dermatologic: Contusion (13.3%), Flushing (19% to 22.3%) | Cough [3]: Respiratory: Cough (10.6% to 17.3%), Dyspnea (11.8%) | Dyspnea [3]: Respiratory: Cough (10.6% to 17.3%), Dyspnea (11.8%) | Fatigue [3]: Other: Fatigue (39.1%) | Flushing [3]: Dermatologic: Contusion (13.3%), Flushing (19% to 22.3%) | Hypercholesterolemia [3]: Endocrine metabolic: Hypercholesterolemia (Greater than 20%), | Hyperglycemia [3]: Hyperglycemia (56.6%), Hypertriglyceridemia (62.5%), | Hypertriglyceridemia [3]: Hyperglycemia (56.6%), Hypertriglyceridemia (62.5%), | Hypokalemia [3]: (17.2% to 28.3%) | Hypophosphatemia [3]: Hypophosphatemia (23.8%) | Joint swelling [3]: Musculoskeletal: Joint swelling (29.5% to 30.3%) | Lymphocytopenia, All grades [3]: grades (38.2%) | Lymphocytopenia, Grade 3 or 4 [3]: Hematologic: Lymphocytopenia, Grade 3 or 4 (8.7%) | Serum bilirubin raised [3]: level raised (30.6% to 37.3%), Serum bilirubin raised (6.6%) | Urinary tract infectious disease [3]: Renal: Urinary tract infectious disease (11.5%)

CC(C)(C)NC[C@H](O)COc1nsnc1N1CCOCC1 [Timolol (Blocadren)]
Burning sensation in eye [3]: sensation in eye (Ophthalmic, 12.5% to 20%), Dry eyes | Cardiac dysrhythmia [3]: Cardiovascular: Cardiac dysrhythmia (1%), Myocardial infarction | Confusion [3]: Neurologic: Confusion (13%), Dizziness (2.3% to 6%, oral), | Depression [3]: Psychiatric: Depression (9.2%, ophthalmic), Hallucinations (11%), | Hallucinations [3]: Psychiatric: Depression (9.2%, ophthalmic), Hallucinations (11%), | Headache [3]: Headache (1.7%, oral; 1% to 5%, ophthalmic) | Psychotic disorder [3]: Psychotic disorder (3%) | Serious side effects, listed without incidence or only as rare [3]: Cardiovascular: Cardiac dysrhythmia (1%), Myocardial infarction | Bradyarrhythmia ([3]; po): Cardiovascular: Angina, Bradyarrhythmia (5% to 9.1%, oral), | Bronchospasm ([3]; po): Respiratory: Bronchospasm (0.6%, oral) | Dizziness ([3]; po): Neurologic: Confusion (13%), Dizziness (2.3% to 6%, oral), | Dyspnea ([3]; po): Respiratory: Cough, Dyspnea (1.7%, oral) | Fatigue ([3]; po): Other: Fatigue (3.4% to 5%, oral), Infectious disease | Headache ([3]; po): Headache (1.7%, oral; 1% to 5%, ophthalmic) | Heart failure ([3]; po): Heart failure (8%, oral), Hypotension

Nesiritide (Natrecor)
Dizziness (incidence) [3]: Neurologic: Dizziness (2%), Headache (7%) | Headache (incidence) [3]: Neurologic: Dizziness (2%), Headache (7%) | Hypotension (incidence) [3]: Cardiovascular: Hypotension (4% to 17%) | Nausea (incidence) [3]: Gastrointestinal: Nausea (3%) | Serum creatinine raised (incidence) [3]: Renal: Serum creatinine raised (17% to 31.4%)

CN1C(=O)CN=C(c2ccccc2)c2cc(Cl)ccc21 [Valium (diazepam)]
Common side effect, Cardiovascular [3]: Cardiovascular: Hypotension | Common side effect, Musculoskeletal [3]: Musculoskeletal: Muscle weakness | Common side effect, Neurologic [3]: Neurologic: Ataxia, Incoordination (3%, rectal gel), Somnolence | Common side effect, Other [3]: Other: Fatigue | Common side effect, Respiratory [3]: Respiratory: Respiratory depression | Diarrhea [3]: Gastrointestinal: Diarrhea (4%, rectal gel) | Euphoria [3]: Psychiatric: Euphoria (3%, rectal gel) | Incoordination [3]: Neurologic: Ataxia, Incoordination (3%, rectal gel), Somnolence | Rash [3]: Dermatologic: Rash (3%, rectal gel) | Serious side effect, Hematologic [3]: Hematologic: Neutropenia
